{"source": "paper PMC6143625", "about": "“A high throughput screen for next-generation leads targeting malaria parasite transmission” (Nature Communications, 2018)", "key": {"HepG2 human cells": {"tested_on": "HepG2 human cells", "set-up": "method as in http://dx.doi.org/10.6019/CHEMBL3507680", "details": "ref http://dx.doi.org/10.6019/CHEMBL3507680; cited from earlier work"}, "[1]": {"tested_on": "P. falciparum stage V female gametocytes (female gamete formation)", "test": "P. falciparum dual gamete formation assay (Pf DGFA), female readout (Pfs25 expression), 48 h carry-over format", "type": "cell-based, Plasmodium falciparum NF54", "details": "Plasmodium falciparum, 48 h incubation; for IC50: 48 h, dose response retest of primary hits, read-out: Female IC50; for inhibition at 2 µM: primary screen, single replicate"}, "[2]": {"tested_on": "P. falciparum stage V male gametocytes (male gamete formation)", "test": "P. falciparum dual gamete formation assay (Pf DGFA), male readout (exflagellation), 48 h carry-over format", "type": "cell-based, Plasmodium falciparum NF54", "details": "Plasmodium falciparum, 48 h incubation; for IC50: 48 h, dose response retest of primary hits, read-out: Male IC50; for inhibition at 2 µM: primary screen, single replicate"}, "[3]": {"tested_on": "P. falciparum 3D7 asexual blood stages", "test": "Whole-cell time extended asexual growth assay (pLDH)", "type": "cell-based", "details": "Plasmodium falciparum, 72 h; for IC50: dose response retest, read-out: IC50 (µM) Asex stages; for inhibition at 2 µM: primary screen, read-out: %Inh Asex stages @2uM", "protocol": "Asexual activity was assayed via Plasmodium lactate dehydrogenase activity (pLDH), a surrogate of asexual parasite growth. […] 2 µM artesunate and DMSO were used as the positive and negative controls, respectively. […] After plate mixing, NBT reduction was measured by absorbance at 650 nm using Envision (Perkin Elmer)."}}, "data": [{"smiles": "COc1ccc(NC(=O)Cn2nc(C)c(C(C)=O)c2C)cc1", "note": "[DDD01027600]", "values": [{"measurement": "%Inh HepG2 @10uM", "setting": "HepG2 human cells", "value": 2.67, "unit": "%"}, {"measurement": "IC50", "setting": "[1]", "value": 5.56, "unit": "µM"}, {"measurement": "inhibition at 2 µM", "setting": "[1]", "value": "< 30", "unit": "%"}, {"measurement": "IC50", "setting": "[2]", "value": 1.24, "unit": "µM"}, {"measurement": "inhibition at 2 µM", "setting": "[2]", "value": 47.3, "unit": "%"}, {"measurement": "IC50", "setting": "[3]", "value": 0.298, "unit": "µM"}, {"measurement": "inhibition at 2 µM", "setting": "[3]", "value": 73.1, "unit": "%"}]}, {"smiles": "CC(C)CN1CCCC1c1ccc(C(=O)Nc2cccnc2)s1", "note": "(centres unmarked) [DDD01247321]", "values": [{"measurement": "%Inh HepG2 @10uM", "setting": "HepG2 human cells", "value": 0.07, "unit": "%"}, {"measurement": "IC50", "setting": "[3]", "value": 3.35, "unit": "µM"}, {"measurement": "inhibition at 2 µM", "setting": "[3]", "value": 34.5, "unit": "%"}]}, {"smiles": "CCn1cc(CN2CCN(Cc3cccc(OC)c3)C(=O)C2)cc1C#N", "note": "[DDD01247460]", "values": [{"measurement": "%Inh HepG2 @10uM", "setting": "HepG2 human cells", "value": -1.17, "unit": "%"}, {"measurement": "IC50", "setting": "[3]", "value": 1.46, "unit": "µM"}, {"measurement": "inhibition at 2 µM", "setting": "[3]", "value": 76.2, "unit": "%"}]}, {"smiles": "COc1ccccc1OCCCc1cccc(C#N)n1", "note": "[DDD01247630]", "values": [{"measurement": "%Inh HepG2 @10uM", "setting": "HepG2 human cells", "value": -1.85, "unit": "%"}, {"measurement": "IC50", "setting": "[3]", "value": 6.32, "unit": "µM"}, {"measurement": "inhibition at 2 µM", "setting": "[3]", "value": 36, "unit": "%"}]}, {"smiles": "COc1cccc(CN(C)Cc2[nH]c3ccccc3c2C)c1O", "note": "[DDD01247848]", "values": [{"measurement": "%Inh HepG2 @10uM", "setting": "HepG2 human cells", "value": 1.38, "unit": "%"}, {"measurement": "IC50", "setting": "[3]", "value": 1.91, "unit": "µM"}, {"measurement": "inhibition at 2 µM", "setting": "[3]", "value": 91.2, "unit": "%"}]}, {"smiles": "CNc1cc(C)nc(NCc2cc(C)cc3c(C)c(C)[nH]c23)n1", "note": "[DDD01248198]", "values": [{"measurement": "%Inh HepG2 @10uM", "setting": "HepG2 human cells", "value": 67.15, "unit": "%"}, {"measurement": "IC50", "setting": "[3]", "value": 1.79, "unit": "µM"}, {"measurement": "inhibition at 2 µM", "setting": "[3]", "value": 69.2, "unit": "%"}]}, {"smiles": "CC(C)c1cc(CN(C)C(=O)C(C)N2CCc3ccccc3C2)no1", "note": "(centres unmarked) [DDD01248554]", "values": [{"measurement": "%Inh HepG2 @10uM", "setting": "HepG2 human cells", "value": 34.35, "unit": "%"}, {"measurement": "IC50", "setting": "[3]", "value": 9.68, "unit": "µM"}, {"measurement": "inhibition at 2 µM", "setting": "[3]", "value": 36, "unit": "%"}]}, {"smiles": "Cc1cccnc1[C@H](C)Nc1nc(-c2cccnc2)nc2c1CNC2", "note": "[DDD01248607]", "values": [{"measurement": "%Inh HepG2 @10uM", "setting": "HepG2 human cells", "value": -8.07, "unit": "%"}, {"measurement": "IC50", "setting": "[3]", "value": 3.44, "unit": "µM"}, {"measurement": "inhibition at 2 µM", "setting": "[3]", "value": 50, "unit": "%"}]}, {"smiles": "CC(C)Cc1ncc2c(n1)CN(c1nccc(NC(C)C)n1)C2", "note": "[DDD01249567]", "values": [{"measurement": "%Inh HepG2 @10uM", "setting": "HepG2 human cells", "value": 2.52, "unit": "%"}, {"measurement": "IC50", "setting": "[3]", "value": 1.4, "unit": "µM"}, {"measurement": "inhibition at 2 µM", "setting": "[3]", "value": 92.8, "unit": "%"}]}, {"smiles": "Cc1cccc2[nH]c(-c3cn(C4CCNCC4)nn3)nc12", "note": "[DDD01250141]", "values": [{"measurement": "%Inh HepG2 @10uM", "setting": "HepG2 human cells", "value": -3.11, "unit": "%"}, {"measurement": "IC50", "setting": "[3]", "value": 3.82, "unit": "µM"}, {"measurement": "inhibition at 2 µM", "setting": "[3]", "value": 34.6, "unit": "%"}]}, {"smiles": "CCc1[nH]c2c(CNc3cc(C)nc(NC)n3)cc(C)cc2c1C", "note": "[DDD01250162]", "values": [{"measurement": "%Inh HepG2 @10uM", "setting": "HepG2 human cells", "value": 98.31, "unit": "%"}, {"measurement": "IC50", "setting": "[3]", "value": 1.2, "unit": "µM"}, {"measurement": "inhibition at 2 µM", "setting": "[3]", "value": 55.3, "unit": "%"}]}, {"smiles": "CCCc1nc(N(C)CCN2CCCCCC2)c2cnn(C)c2n1", "note": "[DDD01250696]", "values": [{"measurement": "%Inh HepG2 @10uM", "setting": "HepG2 human cells", "value": -11.00, "unit": "%"}, {"measurement": "IC50", "setting": "[3]", "value": 5.78, "unit": "µM"}, {"measurement": "inhibition at 2 µM", "setting": "[3]", "value": 32.1, "unit": "%"}]}, {"smiles": "Cc1cc2nc(-c3cn(C4CCNCC4)nn3)[nH]c2cc1C", "note": "[DDD01250700]", "values": [{"measurement": "%Inh HepG2 @10uM", "setting": "HepG2 human cells", "value": -2.26, "unit": "%"}, {"measurement": "IC50", "setting": "[3]", "value": 2.49, "unit": "µM"}, {"measurement": "inhibition at 2 µM", "setting": "[3]", "value": 60.9, "unit": "%"}]}, {"smiles": "Cc1cnccc1NCCNC1CCN(CC(C)C)CC1", "note": "[DDD01251125]", "values": [{"measurement": "%Inh HepG2 @10uM", "setting": "HepG2 human cells", "value": 2.02, "unit": "%"}, {"measurement": "IC50", "setting": "[3]", "value": 1.35, "unit": "µM"}, {"measurement": "inhibition at 2 µM", "setting": "[3]", "value": 98.4, "unit": "%"}]}, {"smiles": "Cc1nc(-c2cc(Cl)cc3c2OC(CN)C3)c[nH]1", "note": "(centres unmarked) [DDD01251343]", "values": [{"measurement": "%Inh HepG2 @10uM", "setting": "HepG2 human cells", "value": 11.09, "unit": "%"}, {"measurement": "IC50", "setting": "[3]", "value": 1.97, "unit": "µM"}, {"measurement": "inhibition at 2 µM", "setting": "[3]", "value": 52.6, "unit": "%"}]}, {"smiles": "CCc1[nH]c2c(CNc3nc(C)cc(NC)n3)cc(C)cc2c1C", "note": "[DDD01251782]", "values": [{"measurement": "%Inh HepG2 @10uM", "setting": "HepG2 human cells", "value": 99.91, "unit": "%"}, {"measurement": "IC50", "setting": "[3]", "value": 1.78, "unit": "µM"}, {"measurement": "inhibition at 2 µM", "setting": "[3]", "value": 97.5, "unit": "%"}]}, {"smiles": "O=C(NCc1cnn2cccnc12)c1cccc(CC2CCNCC2)c1", "note": "[DDD01252275]", "values": [{"measurement": "%Inh HepG2 @10uM", "setting": "HepG2 human cells", "value": 5.06, "unit": "%"}, {"measurement": "IC50", "setting": "[3]", "value": 2.46, "unit": "µM"}, {"measurement": "inhibition at 2 µM", "setting": "[3]", "value": 33, "unit": "%"}]}, {"smiles": "Cc1cccnc1C(Nc1nccc(C2CCCC2)n1)C1CC1", "note": "(centres unmarked) [DDD01252324]", "values": [{"measurement": "%Inh HepG2 @10uM", "setting": "HepG2 human cells", "value": 0.36, "unit": "%"}, {"measurement": "IC50", "setting": "[3]", "value": 1.71, "unit": "µM"}, {"measurement": "inhibition at 2 µM", "setting": "[3]", "value": 73.4, "unit": "%"}]}, {"smiles": "NCC1CCN(C2CCN(c3ccc(-c4ccco4)cc3)CC2)C1", "note": "(centres unmarked) [DDD01252361]", "values": [{"measurement": "%Inh HepG2 @10uM", "setting": "HepG2 human cells", "value": 101.96, "unit": "%"}, {"measurement": "IC50", "setting": "[1]", "value": 3.62, "unit": "µM"}, {"measurement": "inhibition at 2 µM", "setting": "[1]", "value": 64, "unit": "%"}, {"measurement": "IC50", "setting": "[2]", "value": 1.12, "unit": "µM"}, {"measurement": "inhibition at 2 µM", "setting": "[2]", "value": 94.8, "unit": "%"}, {"measurement": "IC50", "setting": "[3]", "value": 1.73, "unit": "µM"}, {"measurement": "inhibition at 2 µM", "setting": "[3]", "value": 68.3, "unit": "%"}]}, {"smiles": "COc1cccc(OC)c1CN1CC(=O)N(c2ccc(C)cc2)CC1C", "note": "(centres unmarked) [DDD01252418]", "values": [{"measurement": "%Inh HepG2 @10uM", "setting": "HepG2 human cells", "value": 1.44, "unit": "%"}, {"measurement": "IC50", "setting": "[3]", "value": 5.59, "unit": "µM"}, {"measurement": "inhibition at 2 µM", "setting": "[3]", "value": 31.8, "unit": "%"}]}, {"smiles": "CCOc1cccc(CN2CCCC(Nc3ccc(F)cc3)C2)c1O", "note": "(centres unmarked) [DDD01252745]", "values": [{"measurement": "%Inh HepG2 @10uM", "setting": "HepG2 human cells", "value": -6.06, "unit": "%"}, {"measurement": "IC50", "setting": "[3]", "value": 3.07, "unit": "µM"}, {"measurement": "inhibition at 2 µM", "setting": "[3]", "value": 42.7, "unit": "%"}]}, {"smiles": "CNc1cc(C)nc(N2Cc3cnn(Cc4ccc(F)cc4)c3C2)n1", "note": "[DDD01252874]", "values": [{"measurement": "%Inh HepG2 @10uM", "setting": "HepG2 human cells", "value": 11.36, "unit": "%"}, {"measurement": "IC50", "setting": "[3]", "value": 2.61, "unit": "µM"}, {"measurement": "inhibition at 2 µM", "setting": "[3]", "value": 45.8, "unit": "%"}]}, {"smiles": "Cc1nc(NCCSc2ccccn2)c2c(C)noc2n1", "note": "[DDD01253053]", "values": [{"measurement": "%Inh HepG2 @10uM", "setting": "HepG2 human cells", "value": -4.96, "unit": "%"}, {"measurement": "IC50", "setting": "[3]", "value": 4.44, "unit": "µM"}, {"measurement": "inhibition at 2 µM", "setting": "[3]", "value": 38.4, "unit": "%"}]}, {"smiles": "NCC1Cc2cc(-c3nccc(N4CCC(O)CC4)n3)cc(F)c2O1", "note": "(centres unmarked) [DDD01254054]", "values": [{"measurement": "%Inh HepG2 @10uM", "setting": "HepG2 human cells", "value": 6.33, "unit": "%"}, {"measurement": "IC50", "setting": "[3]", "value": 4.81, "unit": "µM"}, {"measurement": "inhibition at 2 µM", "setting": "[3]", "value": 76.3, "unit": "%"}]}]}
